According to patent publication US9115081B2, “Synthetic process for aminocyclohexyl ether compounds” (Cardiome Pharma Corp., priority 2004, dated 2015):

Test system: sustained AF maintained during continuous vagal nerve stimulation
Experiment: Canine vagal-AF model: termination of sustained AF by drug infused IV
Format: in vivo, dog
Conditions: for Effective doses for terminating AF: anesthetized mongrel dogs, IV over 5 min, cell format number of dogs-dose
Protocol: Mongrel dogs of either sex weighing 15-49 kg are anesthetized with morphine (2 mg/kg im initially, followed by 0.5 mg/kg IV every 2 h) and α-chloralose (120 mg/kg IV followed by an infusion of 29.25 mg/kg/h; St.-Georges et al., 1997). Dogs are ventilated mechanically with room air supplemented with oxygen via an endotracheal tube at 20 to 25 breaths/minute with a tidal volume obtained from a nomogram. Arterial blood gases are measured and kept in the physiological range (SAO2>90%, pH 7.30-7.45). Catheters are inserted into the femoral artery for blood pressure recording and blood gas measurement, and into both femoral veins for drug administration and venous sampling. Catheters are kept patent with heparinized 0.9% saline solution. Body temperature is maintained at 37-40° C. with a heating blanket.
The heart is exposed via a medial thoracotomy and a pericardial cradle is created. Three bipolar stainless steel, Teflon™-coated electrodes are inserted into the right atria for recording and stimulation, and one is inserted into the left atrial appendage for recording. A programmable stimulator (Digital Cardiovascular Instruments, Berkeley, Calif.) is used to stimulate the right atrium with 2 ms, twice diastolic threshold pulses. Two stainless steel, Teflon™-coated electrodes are inserted into the left ventricle, one for recording and the other for stimulation. […]
Drug effects to terminate sustained AF maintained during continuous vagal nerve stimulation are assessed. […] The vagal stimulation voltage is adjusted under control conditions, and then readjusted after each treatment to maintain the same bradycardic effect. […]
Diastolic threshold current is determined at a basic cycle length of 300 ms by increasing the current 0.1 mA incrementally until stable capture is obtained. […] Atrial and ventricular ERP is measured with the extrastimulus method, over a range of S1S2 intervals at a basic cycle length of 300 ms. […] Diastolic threshold and ERP are determined in duplicate and averaged to give a single value. […]

O=C(NCC1CCCCN1)c1cc(OCC(F)(F)F)ccc1OCC(F)(F)F (stereo not drawn) [Flecainide]
Effective doses for terminating AF (AF terminated at this dose in 1 dog): 10 µmol/kg
Effective doses for terminating AF (AF terminated at this dose in 4 dogs): 2.5 µmol/kg
Effectiveness as a control in terminating vagal AF (control in the present study, compared with earlier reports): comparable to that previously reported
